Measurements taken from patent publication US4493843A, “Indole and indoline carboxylic acid compounds and method of use” (May & Baker Limited, priority 1980, dated 1985).
Like-named read-outs stand apart in the source and are kept apart here.

Test system: serum cholesterol and serum triglycerides
Assay: Hypolipidaemic activity in rats (compound in diet, last 7 of 10 days)
Assay type: in vivo, Male Wistar rats
Settings: Rattus norvegicus, po, 168 h, 7 days; for change in vivo at 0.2 % strength: 0.2 % w/w dose in diet; for change in vivo at 0.1 % strength: 0.1 % w/w dose in diet; for change in vivo at 0.03 % strength: 0.03 % w/w dose in diet
Method: Hypolipidaemic Activity in Rats
Male Wistar rats each weighing between 120 and 150 g were caged in groups of eight and fed a powdered diet for 10 days. For the last 7 days of that period the test compound was administered orally by mixing the compound in the diet and allowing the animals to feed normally. Food consumption was measured on day 9 for each group.
At noon on day 10 the animals were killed by inhalation of carbon dioxide from solid carbon dioxide. A sample of blood was removed by cardiac puncture and the serum cholesterol and serum triglycerides were analysed by means of an autoanalyser.
Control groups (receiving only the normal, unmedicated diet) were included with each test.
The percentage reductions in the concentrations of serum cholesterol and serum triglycerides were calculated by comparison with the simultaneous controls, for each concentration of the test compound used.

[1] = read-out: % change in serum cholesterol compared with control
[2] = read-out: % change in serum triglycerides compared with control

Row | SMILES | change in vivo at 0.2 % strength [1] [%] | change in vivo at 0.2 % strength [2] [%] | change in vivo at 0.1 % strength [1] [%] | change in vivo at 0.1 % strength [2] [%] | change in vivo at 0.03 % strength [1] [%] | change in vivo at 0.03 % strength [2] [%]
1 | CCCCCCCC1Cc2ccc(C(=O)O)cc2N1 (racemic) [Compound AEE, (RS)-2-(n-heptyl)indoline-6-carboxylic acid] | -22 | -37 |  |  |  | 
2 | CCCCCCCCCCCCCCCCC1CNc2cc(C(=O)O)ccc21 (racemic) [Compound CDD, (RS)-3-(n-hexadecyl)indoline-6-carboxylic acid] | -19 | -41 |  |  |  | 
3 | CCCCCCCCCCCCCCCc1cc2c(C(=O)OCC)cccc2[nH]1 [Compound EE, ethyl 2-(n-pentadecyl)indole-4-carboxylate] | -5 | -2 |  |  |  | 
4 | CCCCCCCCCCCc1cc2cc(C(=O)OCC)ccc2[nH]1 [Compound U, ethyl 2-(n-undecyl)indole-5-carboxylate] | -13 | -39 |  |  |  | 
5 | CCCCCCCCCC(C)c1cc2ccc(C(=O)O)cc2[nH]1 (racemic) [Compound VV, (RS)-2-(1-methyldecyl)indole-6-carboxylic acid] | -40 | -73 |  |  |  | 
6 | CCCCCCCCCc1cc2cc(C(=O)O)ccc2[nH]1 [Compound O, 2-(n-nonyl)indole-5-carboxylic acid] | -13 | -44 |  |  |  | 
7 | CCCCCCCCCCC1CNc2cc(C(=O)O)ccc21 (racemic) [Compound BYY, (RS)-3-(n-decyl)indoline-6-carboxylic acid] | -23 | -50 |  |  |  | 
8 | CCCCCCCCCCCCCCCCCc1cc2ccc(C(=O)O)cc2[nH]1 [Compound B, 2-(n-heptadecyl)indole-6-carboxylic acid] | 5 | -4 |  |  |  | 
9 | CCCCCCCCCCC1CNc2ccc(C(=O)O)cc21 (racemic) [Compound BPP, (RS)-3-(n-decyl)indoline-5-carboxylic acid] | -3 | 0 |  |  |  | 
10 | CCCCCCCCCCc1cc2ccc(C(=O)O)cc2[nH]1 [Compound N, 2-(n-decyl)indole-6-carboxylic acid] | -20 | -45 |  |  |  | 
11 | CCCCCCCCC1CNc2cc(C(=O)O)ccc21 (racemic) [Compound CCC, (RS)-3-(n-octyl)indoline-6-carboxylic acid] | -11 | -28 |  |  |  | 
12 | CCCCCCCCCCCCCCCCC1CNc2cc(C(=O)OC)ccc21 (racemic) [Compound CFF, (RS)-methyl 3-(n-hexadecyl)indoline-6-carboxylate] | 6 | 10 |  |  |  | 
13 | CCCCCCCCCc1cc2c(C(=O)O)cccc2[nH]1 [Compound Z, 2-(n-nonyl)indole-4-carboxylic acid] | -14 | -14 |  |  |  | 
14 | CCCCCCCCCCCCc1cc2cc(C(=O)OC)ccc2[nH]1 [Compound AVV, methyl 2-(n-dodecyl)indole-5-carboxylate] | -21 | -80 | -16 | -65 |  | 
15 | CCCCCCCCCCCCCCCCc1c[nH]c2cc(C(=O)O)ccc12 [Compound BFF, 3-(n-hexadecyl)indole-6-carboxylic acid] | 7 | -17 |  |  |  | 
16 | CCCCCCCCCCCc1cc2ccc(C(=O)O)cc2[nH]1 [Compound C, 2-(n-undecyl)indole-6-carboxylic acid] |  |  | -28 | -39 |  | 

Row | SMILES | change in vivo at 0.2 % strength [1] [%] | change in vivo at 0.2 % strength [2] [%] | change in vivo at 0.1 % strength [1] [%] | change in vivo at 0.1 % strength [2] [%] | change in vivo at 0.03 % strength [1] [%] | change in vivo at 0.03 % strength [2] [%]
17 | CCCCCCCCCCCCCCCC1Cc2cc(C(=O)O)ccc2N1 (racemic) [Compound AAA, (RS)-2-(n-pentadecyl)indoline-5-carboxylic acid] | -12 | -55 |  |  |  | 
18 | CCCCCCCCCCCCCCCc1cc2cccc(C(=O)O)c2[nH]1 [Compound I, 2-(n-pentadecyl)indole-7-carboxylic acid] | -26 | -33 |  |  |  | 
19 | CCCCCCCCCCCCC1CNc2cc(C(=O)O)ccc21 (racemic) [Compound CAA, (RS)-3-(n-dodecyl)indoline-6-carboxylic acid] | -28 | -46 |  |  |  | 
20 | CCCCCCCCCCCCc1cc2ccc(C(=O)O)cc2[nH]1 [Compound S, 2-(n-dodecyl)indole-6-carboxylic acid] | -26 | -52 |  |  |  | 
21 | CCCCCCCCCCCCCCCCCc1cc2cc(C(=O)OC)ccc2[nH]1 [Compound AWW, methyl 2-(n-heptadecyl)indole-5-carboxylate] | -24 |  |  |  |  | 
22 | CCCCCCCCCCCC1Cc2ccc(C(=O)O)cc2N1C (racemic) [Compound BII, (RS)-1-methyl-2-(n-undecyl)indoline-6-carboxylic acid] | 0 | -30 |  |  |  | 
23 | CCCCCCCCCCCCc1cc2ccc(C(=O)OCC)cc2[nH]1 [Compound CC, ethyl 2-(n-dodecyl)indole-6-carboxylate] | -17 | -57 |  |  |  | 
24 | CCCCCCCCCCCCCCCCCC1Cc2cc(C(=O)O)ccc2N1 (racemic) [Compound ADD, (RS)-2-(n-heptadecyl)indoline-5-carboxylic acid] | -6 | -40 |  |  |  | 
25 | CCCCCCCCCCCC1Cc2cc(C(=O)O)ccc2N1 (racemic) [Compound YY, (RS)-2-(n-undecyl)indoline-5-carboxylic acid] | -32 | -64 | -21 | -65 | -25 | -51
26 | CCCCCCCCCCCCc1cc2cc(C(=O)O)ccc2[nH]1 [Compound Y, 2-(n-dodecyl)indole-5-carboxylic acid] | -30 | -80 | -20 | -51 |  | 
27 | CCCCCCCCCCCCCc1cc2cc(C(=O)O)ccc2[nH]1 [Compound H, 2-(n-tridecyl)indole-5-carboxylic acid] | -48 | -68 | -15 | -26 |  | 
28 | CCCCCCCCC1CNc2ccc(C(=O)O)cc21 (racemic) [Compound BQQ, (RS)-3-(n-octyl)indoline-5-carboxylic acid] | 11 | 31 |  |  |  | 
29 | CCCCCCCCCCCCCCCc1cc2c(C(=O)O)cccc2[nH]1 [Compound J, 2-(n-pentadecyl)indole-4-carboxylic acid] | -9 | -2 |  |  |  | 
30 | CCCCCCCCc1c[nH]c2cc(C(=O)O)ccc12 [Compound BEE, 3-(n-octyl)indole-6-carboxylic acid] | -19 | -18 |  |  |  | 
31 | CCCCCCCCCCCc1cc2ccc(C(=O)OCC)cc2[nH]1 [Compound FF, ethyl 2-(n-undecyl)indole-6-carboxylate] | -13 | -40 |  |  |  | 
32 | CCCCCCCCCCCCCCCCCCCCc1cc2ccc(C(=O)OCCCC)cc2[nH]1 [Compound AQQ, n-butyl 2-(n-eicosyl)indole-6-carboxylate] | 6 | -12 |  |  |  | 
